{
  "source": "paper PMC12186339",
  "about": "“Assessment of the structure–activity relationship of analogs of the Naegleria fowleri enolase inhibitor HEX” (RSC Medicinal Chemistry, 2025)",
  "key": {"[1]": {"tested_on": "N. fowleri strain TY (ATCC 30107) trophozoites", "test": "In vitro growth inhibition of N. fowleri trophozoites (CellTiter-Glo)", "type": "cell-based, Naegleria fowleri", "settings": "for EC50: Naegleria fowleri, read-out: N. fowleri EC50", "description": "N. fowleri strain TY (ATCC 30107) trophozoites were routinely cultured in T-75 TC-treated flasks at 37 °C and 5% CO2 in media that has been previously described.[10] All compounds described were reconstituted in DMSO for testing, with final concentrations kept at <1% in the assays. To test the inhibitory activity of the compounds on cell growth, 1 × 10^4 cells per mL were seeded in white 96-well plates with 100 μM compound. Cells and compound were incubated at 37 °C and 5% CO2 for 48 hours. CellTiter-Glo reagent (Promega G7570) was then added to each well and luminescence was read using a BioTek Synergy H1 Microplate Reader. […] All reactions were performed in technical triplicate. If growth inhibition was <50% at the concentration tested, EC50 was reported to be above that value."}, "[2]": {"test": "Human cell growth inhibition (CellTiter Blue)", "type": "cell-based", "settings": "HEK-293, 48 hours, read-out: Human cell line CC50", "description": "To determine the amount of agent required to inhibit human cell growth 50% (the CC50 value), human embryonic kidney cells (ATCC HEK-293) were seeded at 5 × 10^4 cells per well in 100 μL of Dulbecco's modified Eagle's medium in tissue culture-treated clear bottom black 96 well plates (Gibco). Cells were incubated with compounds for 48 hours, followed by addition of CellTiter Blue (Promega, Madison, WI, USA) After a 3 hour incubation and equilibration for 15 minutes at room temperature, fluorescence (Ex: 560 nm, EM: 590 nm) was measured and the percentage of growth inhibition was calculated using untreated controls."}, "[3]": {"molecular_target": "NfENO (Naegleria fowleri, UniProt A0A6A5BXC3)", "sequence (A0A6A5BXC3 entry or part of it)": "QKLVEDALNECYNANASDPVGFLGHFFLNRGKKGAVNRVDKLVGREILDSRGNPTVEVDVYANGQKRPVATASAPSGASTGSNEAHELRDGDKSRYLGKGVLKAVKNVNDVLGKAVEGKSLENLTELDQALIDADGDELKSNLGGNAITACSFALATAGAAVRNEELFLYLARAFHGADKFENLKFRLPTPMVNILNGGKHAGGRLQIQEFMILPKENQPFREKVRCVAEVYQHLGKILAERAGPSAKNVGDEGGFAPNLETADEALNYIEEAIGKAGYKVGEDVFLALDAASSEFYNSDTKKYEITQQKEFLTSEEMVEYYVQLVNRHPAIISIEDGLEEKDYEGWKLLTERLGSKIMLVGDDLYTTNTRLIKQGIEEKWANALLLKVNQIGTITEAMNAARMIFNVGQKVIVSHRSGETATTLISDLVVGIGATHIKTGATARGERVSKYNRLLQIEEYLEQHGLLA", "test": "NfENO pyruvate kinase/lactate dehydrogenase-coupled activity assay", "type": "biochemical", "settings": "at 100 μM", "description": "Using the full-length protein (NF0118810, AmoebaDB, https://amoebadb.org/amoeba/app/), an E. coli codon-optimized construct was designed to express a truncated version of NfENO (residues 44–512) to improve solubility.[10]NfENO was heterologously expressed in BL2(DE3)R3 Rosetta cells and expression induced with 0.5 mM isopropyl-β-D-1-thiogalactopyranoside (IPTG) overnight at 37 °C. Cells were lysed using a lysozyme and 10% Triton X-100 based lysis buffer and purified with Ni-NTA agarose beads (Qiagen). Activity assays were conducted in triplicate using a pyruvate kinase/lactate dehydrogenase-coupled assay. Approximately 75 nM of NfENO in assay buffer (100 mM HEPES, pH 8.5, 3.3 mM MgSO4, 120 mM KCl, 1.75 mM ADP, 1 U pyruvate kinase/lactate dehydrogenase, and 0.4 mM NADH) was added to black 96-well plates. For assays in the presence of inhibitor, compounds were resuspended in DMSO, added to the wells, and incubated with enzyme in assay buffer for 15 minutes at room temperature. DMSO was included as a vehicle control. Assays were initiated by addition of substrate solution (3.75 mM 2-PG) and fluorescence emission at 460 nm after excitation at 360 nm was monitored every 20 seconds for 4 minutes using a Biotek Synergy H1 microplate reader. The rate of fluorescence reduction was measured to monitor the conversion of NADH to NAD+. […]"}, "[4]": {"settings": "ATCC30107, trophozoites, 48 hours"}},
  "note": "Where two headings read alike, the source gives them in different places.",
  "data": [
    {"compound": "O=C1C(P(=O)(O)O)CCCN1O", "note": "(stereo not shown) [HEX, (1-hydroxy-2-oxopiperidin-3-yl)phosphonic acid, reference compound]", "values": [
      {"measurement": "EC50", "setting": "[1]; ATCC30107, 48 h", "result": "0.21 ± 0.02", "unit": "µM"},
      {"measurement": "CC50 at 48 h", "setting": "[2]", "result": "> 100", "unit": "µM"}
    ]},
    {"compound": "O=C1SCCCC1P(=O)(O)O", "note": "(stereo not shown) [Compound 7, (2-Oxotetrahydro-2H-thiopyran-3-yl)phosphonic acid]", "values": [
      {"measurement": "EC50", "setting": "[1]; ATCC30107, 48 h", "result": "> 25", "unit": "µM"},
      {"measurement": "effect on NfENO", "setting": "[3]", "result": "no effect"}
    ]},
    {"compound": "O=C1C(S(=O)(=O)O)CCCN1O", "note": "(stereo not shown) [Compound 4, 1-Hydroxy-2-oxopiperidine-3-sulfonic acid]", "values": [
      {"measurement": "EC50", "setting": "[1]; [4]", "result": "> 25", "unit": "µM"}
    ]},
    {"compound": "NN1CCCC(P(=O)(O)O)C1=O", "note": "(stereo not shown) [Compound 1, (1-Amino-2-oxopiperidin-3-yl)phosphonic acid]", "values": [
      {"measurement": "EC50", "setting": "[1]; ATCC30107, 48 h", "result": "> 25", "unit": "µM"}
    ]},
    {"compound": "O=C1[C@@H](P(=O)(O)O)[C@@H]2CCCC[C@H]2CN1O", "note": "[Compound 5, ((4S,4aR,8aR)-2-Hydroxy-3-oxodecahydroisoquinolin-4-yl)phosphonic acid]", "values": [
      {"measurement": "EC50", "setting": "[1]; [4]", "result": "> 25", "unit": "µM"}
    ]},
    {"compound": "O=C1C(P(=O)(O)O)CCCN1CCO", "note": "(stereo not shown) [Compound 3, (1-(2-Hydroxyethyl)-2-oxopiperidin-3-yl)phosphonic acid]", "values": [
      {"measurement": "EC50", "setting": "[1]; ATCC30107, 48 h", "result": "> 25", "unit": "µM"}
    ]},
    {"compound": "O=C1C(P(=O)(O)O)c2ccccc2CN1O", "note": "(stereo not shown) [Compound 2, (2-Hydroxy-3-oxo-1,2,3,4-tetrahydroisoquinolin-4-yl)phosphonic acid]", "values": [
      {"measurement": "EC50", "setting": "[1]; [4]", "result": "> 25", "unit": "µM"},
      {"measurement": "activity on N. fowleri growth", "setting": "[1]; at higher concentrations than 25 μM (100 μM screen), 48 hours", "result": "modest activity"},
      {"measurement": "CC50 at 48 h", "setting": "[2]; HEK-293 cells", "result": "> 25", "unit": "µM"}
    ]},
    {"compound": "O=C1NCCCC1P(=O)(O)O", "note": "(stereo not shown) [Compound 6, (2-Oxopiperidin-3-yl)phosphonic acid]", "values": [
      {"measurement": "EC50", "setting": "[1]; ATCC30107, 48 h", "result": "> 25", "unit": "µM"},
      {"measurement": "effect on NfENO", "setting": "[3]", "result": "no effect"}
    ]}
  ]
}
